According to EP4001279A1, “NOVEL SPIROPYRROLIDINE DERIVED ANTIVIRAL AGENTS” (Enanta Pharmaceuticals, Inc., priority 2020, dated 2022):

Test system: 229E human corona virus (hCoV)
Assay: 229E live virus assay (CPE, ATPlite readout in MRC-5 cells)
Type: cell-based, hCoV-229E
Settings: Human coronavirus 229E, MRC5, hCoV-229E live virus, MOI 0.05, ATPlite readout, run in duplicate

SMILES | EC50
CC(C)C[C@@H](C(=O)N1C[C@]2(C[C@H]1C#N)C(=O)Nc1ccccc12)N(C)C(=O)c1nnc(C2CC2)o1 [Example 354] | < 100 nM
CC(C)C[C@@H](C(=O)N1C[C@]2(C[C@H]1C#N)C(=O)Nc1ccccc12)N(C)C(=O)c1nnc(-c2ccc(F)cc2)o1 [Example 355] | < 100 nM
CC(C)C[C@@H](C(=O)N1C[C@]2(C[C@H]1C#N)C(=O)Nc1ccccc12)N(C)C(=O)c1nnn(C(C)(C)C)n1 [Example 356] | < 100 nM
COc1cccc2[nH]c(C(=O)N(C)[C@@H](COC(C)(C)C)C(=O)N3C[C@]4(C[C@H]3C#N)C(=O)Nc3ccccc34)cc12 [Example 370] | < 100 nM
CN(C(=O)c1cc2c(F)cc(F)cc2[nH]1)[C@@H](COC(C)(C)C)C(=O)N1C[C@]2(C[C@H]1C#N)C(=O)Nc1ccccc12 [Example 371] | < 100 nM
C[C@@H](C(=O)N(C)[C@@H](CC(C)(C)C)C(=O)N1C[C@]2(C[C@H]1C#N)C(=O)Nc1ccccc12)c1cnn(C)c1 [Example 372] | < 100 nM
C[C@H](C(=O)N(C)[C@@H](CC(C)(C)C)C(=O)N1C[C@]2(C[C@H]1C#N)C(=O)Nc1ccccc12)c1cnn(C)c1 [Example 373] | 100 to 1000 nM
CN(C(=O)C(F)(F)F)[C@@H](CC(C)(C)C)C(=O)N1C[C@]2(C[C@H]1C#N)C(=O)Nc1ccccc12 [Example 374] | 100 to 1000 nM
CN(C(=O)c1cc2c(OC3CC3)cccc2[nH]1)[C@@H](CC(C)(C)C)C(=O)N1C[C@]2(C[C@H]1C#N)C(=O)Nc1ccccc12 [Example 375] | < 100 nM
[2H]C([2H])([2H])N(C(=O)c1nc(-c2ccccc2)c[nH]1)[C@@H](CC(C)(C)C)C(=O)N1C[C@]2(C[C@H]1C#N)C(=O)Nc1ccccc12 [Example 376] | < 100 nM
[2H]C([2H])([2H])N(C(=O)c1cn(-c2ccc(Cl)cc2)nn1)[C@@H](CC(C)(C)C)C(=O)N1C[C@]2(C[C@H]1C#N)C(=O)Nc1ccccc12 [Example 377] | < 100 nM
[2H]C([2H])([2H])N(C(=O)c1cn(C2CC2)nn1)[C@@H](CC(C)(C)C)C(=O)N1C[C@]2(C[C@H]1C#N)C(=O)Nc1ccccc12 [Example 378] | < 100 nM
[2H]C([2H])([2H])N(C(=O)c1cn(C2CCC2)nn1)[C@@H](CC(C)(C)C)C(=O)N1C[C@]2(C[C@H]1C#N)C(=O)Nc1ccccc12 [Example 379] | < 100 nM
[2H]C([2H])([2H])N(C(=O)c1cn(CC(F)(F)F)nn1)[C@@H](CC(C)(C)C)C(=O)N1C[C@]2(C[C@H]1C#N)C(=O)Nc1ccccc12 [Example 380] | < 100 nM
[2H]C([2H])([2H])N(C(=O)c1ccc2ncc(C(F)(F)F)cc2c1)[C@@H](CC(C)(C)C)C(=O)N1C[C@]2(C[C@H]1C#N)C(=O)Nc1ccccc12 [Example 381] | < 100 nM
[2H]C([2H])([2H])N(C(=O)c1cc(OC(F)(F)F)c2ncccc2c1)[C@@H](CC(C)(C)C)C(=O)N1C[C@]2(C[C@H]1C#N)C(=O)Nc1ccccc12 [Example 382] | < 100 nM
[2H]C([2H])([2H])N(C(=O)c1cc(OC(F)F)c2ncccc2c1)[C@@H](CC(C)(C)C)C(=O)N1C[C@]2(C[C@H]1C#N)C(=O)Nc1ccccc12 [Example 383] | < 100 nM
CN(C(=O)c1cn(C(C)(C)C)nn1)[C@@H](CC1CC1)C(=O)N1C[C@]2(C[C@H]1C#N)C(=O)Nc1ccccc12 [Example 402] | < 100 nM
CN(C(=O)c1cc2c(F)cc(F)c(F)c2[nH]1)[C@@H](CCC(C)(C)C)C(=O)N1C[C@]2(C[C@H]1C#N)C(=O)Nc1ccccc12 [Example 412] | < 100 nM
CCCOC[C@@H](C(=O)N1C[C@]2(C[C@H]1C#N)C(=O)Nc1ccccc12)N(C)C(=O)c1cc2c(F)cc(F)cc2[nH]1 [Example 413] | < 100 nM
CN(C(=O)[C@H](O)C(C)(C)C)[C@@H](CC1CC1)C(=O)N1C[C@]2(C[C@H]1C#N)C(=O)Nc1ccccc12 [Example 417] | < 100 nM
CCCC[C@H](NC(=O)[C@@H](O)c1ccc(F)cc1)C(=O)N1C[C@]2(C[C@H]1C#N)C(=O)Nc1ccccc12 [Example 418] | 100 to 1000 nM
CCCC[C@H](NC(=O)[C@H](O)c1ccc(F)cc1)C(=O)N1C[C@]2(C[C@H]1C#N)C(=O)Nc1ccccc12 [Example 419] | 100 to 1000 nM
CN(C(=O)[C@H](O)Cc1ccc(F)cc1)[C@@H](CC1CC1)C(=O)N1C[C@]2(C[C@H]1C#N)C(=O)Nc1ccccc12 [Example 423] | < 100 nM
CC(C)C[C@@H](O)C(=O)N(C)[C@@H](CC1CC1)C(=O)N1C[C@]2(C[C@H]1C#N)C(=O)Nc1ccccc12 [Example 424] | < 100 nM
[2H]C([2H])([2H])N(C(=O)[C@@H](O)c1ccccc1)[C@@H](CC(C)(C)C)C(=O)N1C[C@]2(C[C@H]1C#N)C(=O)Nc1ccccc12 [Example 427] | < 100 nM
[2H]C([2H])([2H])N(C(=O)[C@H](O)c1ccccc1)[C@@H](CC(C)(C)C)C(=O)N1C[C@]2(C[C@H]1C#N)C(=O)Nc1ccccc12 [Example 428] | < 100 nM

SMILES | EC50
CC(C)C[C@@H](C(=O)N1C[C@]2(C[C@H]1C#N)C(=O)Nc1ccccc12)N(C(=O)C(F)(F)F)C(C)C [Example 432] | > 1000 nM
CC(C)(C)C[C@H](NC(=O)Nc1ccccc1)C(=O)N1C[C@]2(C[C@H]1C#N)C(=O)Nc1ccccc12 [Example 435] | < 100 nM
CC(C)(C)C[C@H](NC(=O)Nc1ccc(F)cc1F)C(=O)N1C[C@]2(C[C@H]1C#N)C(=O)Nc1ccccc12 [Example 436] | < 100 nM
CC(C)(C)C[C@H](NC(=O)Nc1c(F)cccc1F)C(=O)N1C[C@]2(C[C@H]1C#N)C(=O)Nc1ccccc12 [Example 437] | < 100 nM
Cc1cccc(C)c1NC(=O)N[C@@H](CC(C)(C)C)C(=O)N1C[C@]2(C[C@H]1C#N)C(=O)Nc1ccccc12 [Example 438] | < 100 nM
CC(C)(C)C[C@H](NC(=O)Nc1ccc2ccccc2c1)C(=O)N1C[C@]2(C[C@H]1C#N)C(=O)Nc1ccccc12 [Example 439] | < 100 nM
CC(C)(C)C[C@H](NC(=O)NC1CCCCC1)C(=O)N1C[C@]2(C[C@H]1C#N)C(=O)Nc1ccccc12 [Example 440] | < 100 nM
CC(C)(C)C[C@H](NC(=O)Nc1ccc(F)cc1)C(=O)N1C[C@]2(C[C@H]1C#N)C(=O)Nc1ccccc12 [Example 441] | < 100 nM
CC(=O)C[C@@H](C(=O)N1C[C@]2(C[C@H]1C#N)C(=O)Nc1ccccc12)N(C)C(=O)c1cc2c(F)cc(F)cc2[nH]1 [Example 442] | < 100 nM
CN(C(=O)c1cc2c(F)cc(F)cc2[nH]1)[C@@H](CC(C)(C)O)C(=O)N1C[C@]2(C[C@H]1C#N)C(=O)Nc1ccccc12 [Example 443] | 100 to 1000 nM
CN(C(=O)c1cc2c(F)cc(F)c(F)c2[nH]1)[C@@H](CC(C)(C)O)C(=O)N1C[C@]2(C[C@H]1C#N)C(=O)Nc1ccccc12 [Example 444] | 100 to 1000 nM
CC(C)(F)C[C@H](NC(=O)COc1ccc(F)cc1F)C(=O)N1C[C@]2(C[C@H]1C#N)C(=O)Nc1ccc(Cl)cc12 [Example 445] | 100 to 1000 nM
CC(C)(F)C[C@H](NC(=O)c1cc2ccccn2n1)C(=O)N1C[C@]2(C[C@H]1C#N)C(=O)Nc1ccc(Cl)cc12 [Example 446] | 100 to 1000 nM
CC(C)(F)C[C@H](NC(=O)c1cccc(OC(F)(F)F)c1)C(=O)N1C[C@]2(C[C@H]1C#N)C(=O)Nc1ccc(Cl)cc12 [Example 447] | 100 to 1000 nM
CC(C)(C)C[C@H](NC(=O)c1cc2c(F)cc(F)cc2[nH]1)C(=O)N1C[C@]2(C[C@H]1C#N)C(=O)Nc1ccc(Cl)cc12 [Example 448] | < 100 nM
CC(C)(F)C[C@H](NC(=O)c1ccc(F)cc1F)C(=O)N1C[C@]2(C[C@H]1C#N)C(=O)Nc1ccc(Cl)cc12 [Example 449] | 100 to 1000 nM
CC(C)(C)C[C@H](NC(=O)c1cc2c(Cl)cccc2[nH]1)C(=O)N1C[C@]2(C[C@H]1C#N)C(=O)Nc1ccc(Cl)cc12 [Example 450] | < 100 nM
N#C[C@@H]1C[C@@]2(CN1C(=O)[C@H](Cc1ccccc1F)NC(=O)c1cc3c(F)cc(F)cc3[nH]1)C(=O)Nc1ccc(Cl)cc12 [Example 451] | 100 to 1000 nM
N#C[C@@H]1C[C@@]2(CN1C(=O)[C@H](Cc1ccc(F)cc1)NC(=O)c1cc3c(F)cc(F)cc3[nH]1)C(=O)Nc1ccc(Cl)cc12 [Example 452] | 100 to 1000 nM
[2H]C([2H])([2H])N(C(=O)c1cc2c(F)cc(F)cc2[nH]1)[C@@H](CC(C)(C)F)C(=O)N1C[C@]2(C[C@H]1C#N)C(=O)Nc1ccc(Cl)cc12 [Example 454, N-((S)-1-((3R,5'S)-5-chloro-5'-cyano-2-oxospiro[indoline-3,3'-pyrrolidin]-1'-yl)-4-fluoro-4-methyl-1-oxopentan-2-yl)-4,6-difluoro-N-(methyl-d3)-1H-indole-2-carboxamide] | < 100 nM
CN(C(=O)c1cc2c(F)cc(F)cc2[nH]1)[C@@H](CC(C)(C)F)C(=O)N1C[C@]2(C[C@H]1C#N)C(=O)Nc1ccc(Cl)cc12 [Example 455] | < 100 nM
[2H]C([2H])([2H])N(C(=O)c1cc2c(F)cc(F)cc2[nH]1)[C@@H](CC(C)(C)F)C(=O)N1C[C@]2(C[C@H]1C#N)C(=O)Nc1cc(C(F)(F)F)ccc12 [Example 472, N-((S)-1-((3R,5'S)-5'-cyano-2-oxo-6-(trifluoromethyl)spiro[indoline-3,3'-pyrrolidin]-1-yl)-4-fluoro-4-methyl-1-oxopentan-2-yl)-4,6-difluoro-N-(methyl-d3)-1H-indole-2-carboxamide] | < 100 nM
CN(C(=O)C1(c2ccncc2)CC1)[C@@H](CC(C)(C)F)C(=O)N1C[C@]2(C[C@H]1C#N)C(=O)Nc1ccc(Cl)cc12 [Example 473, N-((S)-1-((3R,5'S)-5-chloro-5'-cyano-2-oxospiro[indoline-3,3'-pyrrolidin]-1'-yl)-4-fluoro-4-methyl-1-oxopentan-2-yl)-N-methyl-1-(pyridin-4-yl)cyclopropane-1-carboxamide] | 100 to 1000 nM
[2H]C([2H])([2H])N(C(=O)Cc1ccncc1)[C@@H](CC(C)(C)F)C(=O)N1C[C@]2(C[C@H]1C#N)C(=O)Nc1ccc(Cl)cc12 [Example 474] | 100 to 1000 nM
[2H]C([2H])([2H])N(C(=O)C1(c2ccncc2)CC1)[C@@H](CC(C)(C)F)C(=O)N1C[C@]2(C[C@H]1C#N)C(=O)Nc1ccc(Cl)cc12 [Example 475] | 100 to 1000 nM
CN(C(=O)Cc1cccnc1)[C@@H](CC(C)(C)F)C(=O)N1C[C@]2(C[C@H]1C#N)C(=O)Nc1ccc(Cl)cc12 [Example 476] | 100 to 1000 nM
